{"source": "paper PMC8989696", "about": "“Characterization of furathiocarb metabolism in in-vitro human liver microsomes and recombinant cytochrome P450 enzymes” (Toxicology Reports, 2022)", "type_in_all_cases": "in vitro ADME", "key": {"[1]": {"test_system": "UDP-glucuronosyl transferase (UGT)", "experiment": "Incubation with human hepatic homogenate fortified with UDP-glucuronic acid (phase II metabolites)", "conditions": "data not illustrated"}, "CYP2B6": {"molecular_target": "T1, CYP2B6 (Homo sapiens, UniProt P20813)", "T1 sequence (P20813 1-491)": "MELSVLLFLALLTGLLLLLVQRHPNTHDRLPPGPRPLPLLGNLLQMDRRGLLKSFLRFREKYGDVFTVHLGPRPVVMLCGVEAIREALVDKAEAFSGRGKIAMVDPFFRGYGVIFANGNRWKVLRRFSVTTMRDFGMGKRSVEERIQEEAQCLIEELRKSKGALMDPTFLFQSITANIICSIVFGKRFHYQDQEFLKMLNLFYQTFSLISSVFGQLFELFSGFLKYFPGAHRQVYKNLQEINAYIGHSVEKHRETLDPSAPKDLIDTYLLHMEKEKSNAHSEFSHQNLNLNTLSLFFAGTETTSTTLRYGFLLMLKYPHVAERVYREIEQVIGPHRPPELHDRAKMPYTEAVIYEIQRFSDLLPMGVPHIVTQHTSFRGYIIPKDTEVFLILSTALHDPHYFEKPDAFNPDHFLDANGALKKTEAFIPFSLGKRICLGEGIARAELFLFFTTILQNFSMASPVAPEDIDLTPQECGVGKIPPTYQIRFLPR", "experiment": "biochemical", "parameters": "from tissue; host or cells: pooled human liver microsomes (n = 10 donors)", "description": "(§1) N-in-one (“cocktail”) assay for measuring major CYP activities simultaneously, [55], [56] was employed to investigate human CYP-furathiocarb inhibitory interactions in pooled human hepatic microsomes. Furathiocarb (ﬁnal concentrations in the incubation mixture were 1, 5, 25, 50, and 100 µM) was added to the incubation mixture. The N-in-one was used earlier for the study of pesticide interactions and the details of the incubations with furathiocarb are described in Supplementary materials.\n(§2) The kinetic parameters Vmax and Km were calculated by nonlinear regression. Bivariate linear Pearson’s correlation coefﬁcients (r2) were calculated between metabolite formations and model activities in the livers. GraphPad Prism 9 Software (Inc., San Diego, CA) Prism 9.0.0 (San Diego, CA) was used for kinetic parameters and correlation coefﬁcients analysis. The IC50 values were determined by linear regression analysis using OriginPro 2020 (MicroCal Software, Inc., Northampton, MA.\n(§3) N-in-one assay was performed to investigate human CYP-furathiocarb inhibitory interactions. Furathiocarb (ﬁnal concentrations in the incubation mixture were 1, 5, 25, 50, and 100 µM) was added to the incubation mixture.\n(§4) The N-in-one assay, analytical method and authentic standards have been described previously (Abass and Pelkonen 2013; Tolonen et al. 2007; Turpeinen et al. 2005). […]"}, "CYP2C19": {"molecular_target": "T2, CYP2C19 (Homo sapiens, UniProt P33261)", "T2 construct": "from tissue; host or cells: pooled human liver microsomes (n = 10 donors)", "T2 sequence (P33261 whole entry)": "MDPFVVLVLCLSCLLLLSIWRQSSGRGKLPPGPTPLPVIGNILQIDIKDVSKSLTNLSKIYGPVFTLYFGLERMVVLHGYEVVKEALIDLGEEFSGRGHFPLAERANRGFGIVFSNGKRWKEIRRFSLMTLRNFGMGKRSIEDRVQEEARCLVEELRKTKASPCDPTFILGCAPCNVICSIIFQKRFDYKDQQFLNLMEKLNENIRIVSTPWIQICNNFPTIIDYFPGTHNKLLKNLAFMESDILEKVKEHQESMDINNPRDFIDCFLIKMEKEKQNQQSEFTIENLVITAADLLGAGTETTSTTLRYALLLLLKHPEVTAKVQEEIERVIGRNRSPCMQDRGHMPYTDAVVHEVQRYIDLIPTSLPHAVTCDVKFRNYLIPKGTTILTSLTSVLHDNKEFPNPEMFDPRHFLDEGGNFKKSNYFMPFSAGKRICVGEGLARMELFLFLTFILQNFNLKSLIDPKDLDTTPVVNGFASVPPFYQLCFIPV", "experiment": "biochemical", "description": "as §1, §2, §3, §4"}, "[2]": {"test_system": "human CYP activities other than CYP1A2, CYP2B6, CYP2C9, CYP2C19", "experiment": "N-in-one CYP inhibition assay, pooled human hepatic microsomes, other CYP activities", "conditions": "pooled human liver microsomes (n = 10), pH 7.4, furathiocarb 1–100 µM, read-out: Other IC50 values (remaining CYP activities of N-in-one assay)", "description": "as §1, §2, §3, §4"}, "[3]": {"experiment": "Correlation of furathiocarb metabolite formation with model CYP substrate activities in ten human hepatic microsomes", "conditions": "20 min, n = 10; for Linear correlation coefficient, Carbofuran metabolic pathway: 50 μM furathiocarb", "description": "A set of ten livers was used to assess the metabolism of furathiocarb in the individual livers as well as to correlate the activities with a model CYP substrate. (Detailed information is available as Supplementary materials).\nas §2\nMetabolites of bupropion, amodiaquine, tolbutamide, omeprazole, dextromethorphan, chlorzoxazone, and midazolam were analyzed by a Shimadzu VP series high-performance liquid chromatograph with an autoinjector (Shimadzu, Kyoto, Japan). The analytical column was a Waters Symmetry C18 (3.9 mm x 150 mm, particle size of 5 µm) together with a Lichospher 100 RP-18 4.0 mm x 4.0 mm precolumn (Merck, Darmstadt, Germany). Chromatographic methods were isocratic, except in the case of omeprazole when a linear gradient elution from 15 to 35% A in 8 min was used. Mobile phases were pumped at a flow rate of 1.0 ml/min. The injection volume used was 20 µl. The concentrations of metabolites were calculated from peak height ratios of the UV chromatograms on the basis of standard calibration curves of authentic metabolites. Metabolites of ethoxyresorufin, ethoxycoumarin, coumarin, and pentoxyresorufin were analyzed fluorometrically. […] Fresh […] dilutions from stock solution of DMSO were used for each assay. The final amount of DMSO was 1% in incubation mixtures. For chlorzoxazone 6-hydroxylation the solvent was evaporated because of the potent inhibition effect of DMSO on CYP2E1, and the residue was diluted with 10 µl of lipid solution. Lipid solution was prepared by adding 8 µl of dimethyldioctadecylammonium-bromide in chloroform (100 mg/ml) to 200 µl L-α-phosphatidylethanolamine dioleyl [C18:1 (cis)-9] in chloroform. This mixture was evaporated with a stream of nitrogen flow, 2 ml of water was added, and the final mixture was sonicated (Branson Sonifier 250 GWB) on an ice bath for 10 min by using 50% power.\nCytochrome P450 enzyme activity characterizations as well as incubations with individual human hepatic microsomes were performed at the same time. A bank of 10 livers was used to assess the metabolism of furathiocarb in individual livers as well as to correlate the activities with model P450 substrate activities. A correlation was performed between the formation of furathiocarb metabolites and each CYP activity across the human liver set. For all data points the mean of duplicate incubations were used. […] Bivariate linear Pearson’s correlation coefficients (r) were calculated between metabolite formations and model activities in livers. […]"}}, "note": "pIC50: −log10 of the molar value. Marks after values point to notes of the source that are not given here."}
{"smiles": "CCCCOC(=O)N(C)SN(C)C(=O)Oc1cccc2c1OC(C)(C)C2", "note": "[furathiocarb, Furathiocarb]", "values": [{"measurement": "Phase II metabolites", "setting": "[1]", "result": "no phase II metabolites were detected"}, {"measurement": "pIC50", "setting": "CYP2B6", "result": "4.73 to 4.78"}, {"measurement": "pIC50", "setting": "CYP2C19", "result": "4.73 to 4.78"}, {"measurement": "IC50 at 20 min", "setting": "[2]", "result": "> 100", "unit": "µM"}, {"measurement": "Linear correlation coefficient, Carbofuran metabolic pathway", "setting": "[3]; vs CYP1A1/2 7-Ethoxyresorufin-O-deethylation (EROD)", "result": 0.2493}, {"measurement": "Linear correlation coefficient, Carbofuran metabolic pathway", "setting": "[3]; vs CYP2A6 Coumarin-7-hydroxylation (OH-COU)", "result": 0.2303}, {"measurement": "Linear correlation coefficient, -OH/SO4 furathiocarb Metabolite B", "setting": "[3]; vs CYP2A6 Coumarin-7-hydroxylation (OH-COU), 100 μM furathiocarb", "result": 0.1259}, {"measurement": "Linear correlation coefficient, Carbofuran metabolic pathway", "setting": "[3]; vs CYP2B6 Bupropion hydroxylation (OH-BUP)", "result": 0.0023}, {"measurement": "Linear correlation coefficient, Carbofuran metabolic pathway", "setting": "[3]; vs CYP2C8 Amodiaquine-desethylation (deEt-AMO)", "result": 0.1814}, {"measurement": "Linear correlation coefficient, Carbofuran metabolic pathway", "setting": "[3]; vs CYP2C9 Tolbutamide hydroxylation (OH-TOL)", "result": 0.1126}, {"measurement": "Linear correlation coefficient, Carbofuran metabolic pathway", "setting": "[3]; vs CYP2C19 Omeprazole-5-hydroxylation (5-OH-OME), P < 0.0001", "result": "0.9074 **"}, {"measurement": "Linear correlation coefficient, -OH/SO4 furathiocarb Metabolite A", "setting": "[3]; vs CYP2C19 Omeprazole-5-hydroxylation (5-OH-OME), 100 μM furathiocarb", "result": 0.4683}, {"measurement": "Linear correlation coefficient, Carbofuran metabolic pathway", "setting": "[3]; vs CYP2D6 Dextromethorphan-O-desmethylation (O-dem-DEX)", "result": 0.0059}, {"measurement": "Linear correlation coefficient, Carbofuran metabolic pathway", "setting": "[3]; vs CYP2E1 Chlorzoxazone-6-hydroxylation (OH-CLZ)", "result": 0.1101}, {"measurement": "Linear correlation coefficient, Carbofuran metabolic pathway", "setting": "[3]; vs CYP3A4 Midazolam-1'-hydroxylation (1-OH-MDZ), P = 0.0001", "result": "0.8513 *"}, {"measurement": "Linear correlation coefficient, -OH/SO4 furathiocarb Metabolite B", "setting": "[3]; vs CYP3A4 Midazolam-1'-hydroxylation (1-OH-MDZ), 100 μM furathiocarb", "result": 0.3282}, {"measurement": "Linear correlation coefficient, Carbofuran metabolic pathway", "setting": "[3]; vs CYP3A4 Omeprazole sulfoxidation (SO2-OME), P < 0.0001", "result": "0.9632 **"}, {"measurement": "Linear correlation coefficient, -OH/SO4 furathiocarb Metabolite B", "setting": "[3]; vs CYP3A4 Omeprazole sulfoxidation (SO2-OME), 100 μM furathiocarb", "result": 0.2793}]}
